Counter-ions that a name gives are not always drawn.
What was measured:
[1] = target: hJAK2 (Homo sapiens (Human), UniProt O60674); assay: hJAK2 LANCE TR-FRET enzymatic assay; type: biochemical; conditions: read-out: JAK2 IC50
[2] = target: IKKε (Homo sapiens (Human), UniProt Q14164); assay: IKKε TR-FRET enzymatic assay; type: biochemical; conditions: TR-FRET, 2×Km ATP; geometric mean of minimum four determinations; read-out: IKKe IC50
[3] = target: TBK1 (Homo sapiens (Human), UniProt Q9UHD2); assay: TBK1 TR-FRET enzymatic assay;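 also: phosphorylation of a biotinylated Ser/Thr peptide by purified full-length recombinant TBK1, read by TR-FRET after 240 min at 25 °C, IC50 is the geometric mean of at least four runs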
TBK1, sequence (Q9UHD2 whole entry): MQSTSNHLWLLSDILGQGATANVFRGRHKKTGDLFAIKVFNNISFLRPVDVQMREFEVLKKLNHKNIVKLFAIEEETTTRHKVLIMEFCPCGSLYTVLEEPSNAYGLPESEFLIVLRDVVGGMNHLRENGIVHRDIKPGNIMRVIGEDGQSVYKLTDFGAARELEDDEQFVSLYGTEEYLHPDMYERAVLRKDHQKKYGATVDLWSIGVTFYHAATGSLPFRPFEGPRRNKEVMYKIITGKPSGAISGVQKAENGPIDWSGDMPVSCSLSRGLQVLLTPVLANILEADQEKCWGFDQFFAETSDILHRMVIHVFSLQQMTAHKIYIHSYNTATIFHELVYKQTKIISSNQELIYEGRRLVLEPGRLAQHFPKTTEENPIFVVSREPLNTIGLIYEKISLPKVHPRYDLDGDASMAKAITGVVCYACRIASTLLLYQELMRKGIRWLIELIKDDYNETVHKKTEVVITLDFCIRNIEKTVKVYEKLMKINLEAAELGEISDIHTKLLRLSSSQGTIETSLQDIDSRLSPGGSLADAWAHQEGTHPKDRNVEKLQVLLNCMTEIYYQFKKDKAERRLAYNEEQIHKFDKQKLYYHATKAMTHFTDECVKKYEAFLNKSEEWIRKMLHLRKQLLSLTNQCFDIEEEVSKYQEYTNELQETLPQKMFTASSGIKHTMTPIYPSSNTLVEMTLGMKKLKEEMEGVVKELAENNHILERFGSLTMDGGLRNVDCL

hJAK2, sequence (O60674 whole entry): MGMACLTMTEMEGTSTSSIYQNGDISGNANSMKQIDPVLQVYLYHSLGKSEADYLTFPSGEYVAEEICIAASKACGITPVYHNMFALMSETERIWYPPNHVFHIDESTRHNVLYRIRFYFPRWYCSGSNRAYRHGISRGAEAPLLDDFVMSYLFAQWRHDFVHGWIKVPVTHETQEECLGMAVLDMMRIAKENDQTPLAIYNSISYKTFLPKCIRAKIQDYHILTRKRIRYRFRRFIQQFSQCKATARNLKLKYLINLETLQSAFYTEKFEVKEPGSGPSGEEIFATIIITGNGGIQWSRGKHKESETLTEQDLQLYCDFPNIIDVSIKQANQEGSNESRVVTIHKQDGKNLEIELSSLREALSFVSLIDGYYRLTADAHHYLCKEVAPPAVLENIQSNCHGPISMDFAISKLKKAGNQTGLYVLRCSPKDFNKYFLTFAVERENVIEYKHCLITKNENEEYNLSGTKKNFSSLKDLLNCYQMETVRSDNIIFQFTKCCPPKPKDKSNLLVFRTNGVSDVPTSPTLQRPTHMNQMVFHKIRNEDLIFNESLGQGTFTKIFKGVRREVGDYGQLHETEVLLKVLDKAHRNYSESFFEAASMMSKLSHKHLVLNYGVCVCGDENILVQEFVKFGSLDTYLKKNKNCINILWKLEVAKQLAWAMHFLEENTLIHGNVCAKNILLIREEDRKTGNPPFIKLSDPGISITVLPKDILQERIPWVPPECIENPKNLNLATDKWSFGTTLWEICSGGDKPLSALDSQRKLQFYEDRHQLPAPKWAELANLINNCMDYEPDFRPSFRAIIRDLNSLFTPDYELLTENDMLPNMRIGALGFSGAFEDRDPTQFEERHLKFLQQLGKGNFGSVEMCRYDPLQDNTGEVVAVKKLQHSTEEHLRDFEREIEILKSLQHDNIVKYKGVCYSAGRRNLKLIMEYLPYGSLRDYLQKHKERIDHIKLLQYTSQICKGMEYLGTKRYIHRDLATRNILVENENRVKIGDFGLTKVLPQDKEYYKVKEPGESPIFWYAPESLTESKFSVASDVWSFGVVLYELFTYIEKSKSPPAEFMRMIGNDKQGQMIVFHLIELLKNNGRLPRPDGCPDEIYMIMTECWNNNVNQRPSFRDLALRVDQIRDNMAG
IKKε, sequence (Q14164 whole entry): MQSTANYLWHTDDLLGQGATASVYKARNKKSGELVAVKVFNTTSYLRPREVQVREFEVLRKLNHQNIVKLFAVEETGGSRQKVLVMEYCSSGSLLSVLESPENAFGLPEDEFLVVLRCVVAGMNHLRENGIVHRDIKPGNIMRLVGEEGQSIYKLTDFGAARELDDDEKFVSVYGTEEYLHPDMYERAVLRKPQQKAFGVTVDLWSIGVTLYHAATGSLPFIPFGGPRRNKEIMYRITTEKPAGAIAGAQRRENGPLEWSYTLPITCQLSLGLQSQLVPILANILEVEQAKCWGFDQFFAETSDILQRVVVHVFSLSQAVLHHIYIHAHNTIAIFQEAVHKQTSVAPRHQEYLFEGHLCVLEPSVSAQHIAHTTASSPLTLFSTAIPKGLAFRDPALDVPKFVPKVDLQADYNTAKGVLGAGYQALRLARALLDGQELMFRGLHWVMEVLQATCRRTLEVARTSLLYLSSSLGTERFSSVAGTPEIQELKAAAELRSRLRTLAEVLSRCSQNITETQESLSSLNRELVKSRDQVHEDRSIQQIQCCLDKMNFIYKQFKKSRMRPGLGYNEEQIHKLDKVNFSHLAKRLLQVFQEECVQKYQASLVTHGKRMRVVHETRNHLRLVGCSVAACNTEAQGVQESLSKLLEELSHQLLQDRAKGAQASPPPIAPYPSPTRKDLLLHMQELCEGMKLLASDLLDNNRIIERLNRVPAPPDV

| IC50 [1] | IC50 [2] | IC50 [3] | Structure (SMILES) |
| --- | --- | --- | --- |
| 197 nM | 1 nM | 2 nM | C[C@H](O)C(=O)N1CC[C@H](Oc2ccc(-c3ncnc(Nc4ccc(N5CCN(C6COC6)[C@@H](CO)C5)cc4)n3)cc2C#N)C(F)(F)C1 [Example 469, 2-(((S)-3,3-difluoro-1-((S)-2-hydroxypropanoyl)piperidin-4-yl)oxy)-5-(4-((4-((R)-3-(hydroxymethyl)-4-(oxetan-3-yl)piperazin-1-yl)phenyl)amino)-1,3,5-triazin-2-yl)benzonitrile] |
| ≥ 1000 nM | 44 nM | 12 nM | C[C@H](O)CC(=O)N1CC[C@H](Oc2ccc(-c3ncnc(Nc4ccc(N5CCN(C6COC6)CC5)cc4)n3)cc2C#N)[C@H](F)C1 [Example 470, 2-(((3R,4S)-3-fluoro-1-((S)-3-hydroxybutanoyl)piperidin-4-yl)oxy)-5-(4-((4-(4-(oxetan-3-yl)piperazin-1-yl)phenyl)amino)-1,3,5-triazin-2-yl)benzonitrile] |
| 702 nM | 14 nM | 6 nM | C[C@@H](O)CC(=O)N1CC[C@H](Oc2ccc(-c3ncnc(Nc4ccc(N5CCN(C6COC6)CC5)cc4)n3)cc2C#N)[C@H](F)C1 [Example 471, 2-(((3R,4S)-3-fluoro-1-((R)-3-hydroxybutanoyl)piperidin-4-yl)oxy)-5-(4-((4-(4-(oxetan-3-yl)piperazin-1-yl)phenyl)amino)-1,3,5-triazin-2-yl)benzonitrile] |
| 971 nM | 43 nM | 19 nM | N#Cc1cc(-c2ncnc(Nc3ccc(N4CCN(C5COC5)CC4)cc3)n2)ccc1O[C@H]1CCN(C(=O)C2(O)COC2)C[C@H]1F [Example 472, 2-(((3R,4S)-3-fluoro-1-(3-hydroxyoxetane-3-carbonyl)piperidin-4-yl)oxy)-5-(4-((4-(4-(oxetan-3-yl)piperazin-1-yl)phenyl)amino)-1,3,5-triazin-2-yl)benzonitrile] |
| 771 nM | 3 nM | 3 nM | N#Cc1cc(-c2ncnc(Nc3ccc(N4CCN(C5COC5)CC4)cc3)n2)ccc1O[C@H]1CCN(C(=O)c2cnco2)C[C@H]1F [Example 473, 2-(((3R,4S)-3-fluoro-1-(oxazole-5-carbonyl)piperidin-4-yl)oxy)-5-(4-((4-(4-(oxetan-3-yl)piperazin-1-yl)phenyl)amino)-1,3,5-triazin-2-yl)benzonitrile] |
| ≥ 1000 nM | 10 nM | 6 nM | COc1cc(Nc2ncnc(-c3ccc(O[C@H]4CCN(C(=O)[C@H](C)O)C[C@H]4F)c(C#N)c3)n2)ccn1 [Example 474] |
| ≥ 1000 nM | 50 nM | 23 nM | N#Cc1cc(-c2ncnc(Nc3ccc(N4CCN(C5COC5)CC4)cc3)n2)ccc1O[C@H]1CCN(C(=O)[C@@H]2COCCN2)C[C@H]1F [Example 475, 2-(((3R,4S)-3-fluoro-1-((S)-morpholine-3-carbonyl)piperidin-4-yl)oxy)-5-(4-((4-(4-(oxetan-3-yl)piperazin-1-yl)phenyl)amino)-1,3,5-triazin-2-yl)benzonitrile] |
| ≥ 1000 nM | 3 nM | 3 nM | C[C@H](O)C(=O)N1CC[C@H](Oc2ccc(-c3ncnc(Nc4ccc(-c5ccn(C)c(=O)c5)cc4)n3)cc2C#N)[C@H](F)C1 [Example 476, 2-(((3R,4S)-3-fluoro-1-((S)-2-hydroxypropanoyl)piperidin-4-yl)oxy)-5-(4-((4-(1-methyl-2-oxo-1,2-dihydropyridin-4-yl)phenyl)amino)-1,3,5-triazin-2-yl)benzonitrile] |
| 526 nM | 2 nM | 3 nM | N#Cc1cc(-c2ncnc(Nc3ccc(N4CCN(C5COC5)CC4)cc3)n2)ccc1O[C@H]1CCN(C(=O)c2cocn2)C[C@H]1F [Example 477, 2-(((3R,4S)-3-fluoro-1-(oxazole-4-carbonyl)piperidin-4-yl)oxy)-5-(4-((4-(4-(oxetan-3-yl)piperazin-1-yl)phenyl)amino)-1,3,5-triazin-2-yl)benzonitrile] |
| 135 nM | 1 nM | 3 nM | N#Cc1cc(-c2ncnc(Nc3ccc(N4CCN(C5COC5)CC4)cc3)n2)ccc1O[C@H]1CCN(C(=O)NO)C[C@H]1F [Example 478, (3R,4S)-4-(2-cyano-4-(4-((4-(4-(oxetan-3-yl)piperazin-1-yl)phenyl)amino)-1,3,5-triazin-2-yl)phenoxy)-3-fluoro-N-hydroxypiperidine-1-carboxamide] |
| ≥ 1000 nM | 1 nM | 2 nM | COc1cc(Nc2ncnc(-c3ccc(O[C@H]4CCN(C(=O)[C@@H](O)CO)CC4(F)F)c(C#N)c3)n2)ccn1 [Example 479, 2-(((S)-1-((S)-2,3-dihydroxypropanoyl)-3,3-difluoropiperidin-4-yl)oxy)-5-(4-((2-methoxypyridin-4-yl)amino)-1,3,5-triazin-2-yl)benzonitrile] |
| ≥ 1000 nM | 180 nM | 47 nM | N#Cc1cc(-c2ncnc(Nc3ccc(N4CCN(C5COC5)CC4)cc3)n2)ccc1O[C@H]1CCN(c2ccccn2)C[C@H]1F [Example 480, 2-(((3R,4S)-3-fluoro-1-(pyridin-2-yl)piperidin-4-yl)oxy)-5-(4-((4-(4-(oxetan-3-yl)piperazin-1-yl)phenyl)amino)-1,3,5-triazin-2-yl)benzonitrile] |
| 221 nM | 7 nM | 5 nM | CS(=N)(=O)c1ccc(Nc2ncnc(-c3ccc(O[C@H]4CCN(C=O)CC4(F)F)c(C#N)c3)n2)cc1 (stereo partly drawn) [Example 482, 2-(((S)-3,3-difluoro-1-formylpiperidin-4-yl)oxy)-5-(4-((4-(S-methylsulfonimidoyl)phenyl)amino)-1,3,5-triazin-2-yl)benzonitrile] |
| ≥ 1000 nM | 6 nM | 8 nM | COc1cc(Nc2ncnc(-c3ccc(O[C@H]4CCN(C(=O)[C@H](C)O)C[C@H]4F)c(C#N)c3)n2)ccc1S(C)(=O)=O [Example 483, 2-(((3R,4S)-3-fluoro-1-((S)-2-hydroxypropanoyl)piperidin-4-yl)oxy)-5-(4-((3-methoxy-4-(methylsulfonyl)phenyl)amino)-1,3,5-triazin-2-yl)benzonitrile] |
| 767 nM | 5 nM | 3 nM | C[C@H](O)C(=O)N1CC[C@H](Oc2ccc(-c3ncnc(Nc4cccc(C(C)(C)O)c4)n3)cc2C#N)[C@H](F)C1 [Example 486, 2-(((3R,4S)-3-fluoro-1-((S)-2-hydroxypropanoyl)piperidin-4-yl)oxy)-5-(4-((3-(2-hydroxypropan-2-yl)phenyl)amino)-1,3,5-triazin-2-yl)benzonitrile] |
| 324 nM | 1 nM | 3 nM | Cc1cc(Nc2ncnc(-c3ccc(O[C@H]4CCN(C(=O)[C@H](C)O)C[C@H]4F)c(C#N)c3)n2)ccc1C1CCN(C)CC1 [Example 487, 2-(((3R,4S)-3-fluoro-1-((S)-2-hydroxypropanoyl)piperidin-4-yl)oxy)-5-(4-((3-methyl-4-(1-methylpiperidin-4-yl)phenyl)amino)-1,3,5-triazin-2-yl)benzonitrile] |
| 131 nM | 1 nM | 4 nM | Cc1cc(Nc2ncnc(-c3ccc(O[C@H]4CCN(C(=O)CC#N)C[C@H]4F)c(C#N)c3)n2)ccc1C1CCN(C)CC1 [Example 488, 2-(((3R,4S)-1-(2-cyanoacetyl)-3-fluoropiperidin-4-yl)oxy)-5-(4-((3-methyl-4-(1-methylpiperidin-4-yl)phenyl)amino)-1,3,5-triazin-2-yl)benzonitrile] |
| 183 nM | 1 nM | 4 nM | COCC(=O)N1CC[C@H](Oc2ccc(-c3ncnc(Nc4ccc(C5CCN(C)CC5)c(C)c4)n3)cc2C#N)[C@H](F)C1 [Example 489, 2-(((3R,4S)-3-fluoro-1-(2-methoxyacetyl)piperidin-4-yl)oxy)-5-(4-((3-methyl-4-(1-methylpiperidin-4-yl)phenyl)amino)-1,3,5-triazin-2-yl)benzonitrile] |
| 216 nM | 33 nM | 25 nM | N#Cc1cc(-c2ncnc(Nc3ccc(N4CCN(C5COC5)CC4)cc3)n2)ccc1OCC1(C#N)COC1 [Example 491, 3-((2-cyano-4-(4-((4-(4-(oxetan-3-yl)piperazin-1-yl)phenyl)amino)-1,3,5-triazin-2-yl)phenoxy)methyl)oxetane-3-carbonitrile] |
| 482 nM | 1 nM | 2 nM | COCC(=O)N1CC[C@H](Oc2ccc(-c3ncnc(Nc4ccc(C5CCN(C=O)CC5)c(C)c4)n3)cc2C#N)[C@H](F)C1 [Example 492, 2-(((3R,4S)-3-fluoro-1-(2-methoxyacetyl)piperidin-4-yl)oxy)-5-(4-((4-(1-formylpiperidin-4-yl)-3-methylphenyl)amino)-1,3,5-triazin-2-yl)benzonitrile] |
| 782 nM | 1 nM | 2 nM | Cc1cc(Nc2ncnc(-c3ccc(O[C@H]4CCN(C(=O)[C@H](C)O)C[C@H]4F)c(C#N)c3)n2)ccc1C1CCN(C=O)CC1 [Example 493, 2-(((3R,4S)-3-fluoro-1-((S)-2-hydroxypropanoyl)piperidin-4-yl)oxy)-5-(4-((4-(1-formylpiperidin-4-yl)-3-methylphenyl)amino)-1,3,5-triazin-2-yl)benzonitrile] |

| Structure (SMILES) | IC50 [1] | IC50 [2] | IC50 [3] |
| --- | --- | --- | --- |
| CS(=O)(=O)c1ccc(-c2ncnc(Nc3ccc(N4CCN(C5COC5)CC4)cc3)n2)cc1 [Example 484, 4-(4-(methylsulfonyl)phenyl)-N-(4-(4-(oxetan-3-yl)piperazin-1-yl)phenyl)-1,3,5-triazin-2-amine, trifluoroacetic acid salt] | 837 nM | ≥ 1000 nM | 1000 nM |
| Cc1cc(Nc2ncnc(-c3ccc(O[C@H]4CCN(C(=O)c5cn(C)nn5)C[C@H]4F)c(C#N)c3)n2)ccc1C1CCN(C)CC1 [Example 485, 2-(((3R,4S)-3-fluoro-1-(1-methyl-1H-1,2,3-triazole-4-carbonyl)piperidin-4-yl)oxy)-5-(4-((3-methyl-4-(1-methylpiperidin-4-yl)phenyl)amino)-1,3,5-triazin-2-yl)benzonitrile] | 576 nM | 1 nM | 3 nM |
